This assay is described as follows: Antiandrogenic activity assessed as inhibition of testosterone 5alpha reductase at 100 ug/mL. On the set-up: scale not given: the % may be the effect or the level left.
As for `C/C(=C\C(O)C1OC1(C)C)[C@H]1CC[C@]2(C)[C@@H]1C[C@@H](O)[C@@H]1[C@]34CC[C@](O)(OC3)C(C)(C)[C@@H]4CC[C@]12C` (stereo not given in full), the Activity is 15.1%.

Turning to `C=C(C)C(O)C(O)/C=C(\C)[C@H]1CC[C@]2(C)[C@@H]1C[C@@H](O)[C@@H]1[C@]34CC[C@](O)(OC3)C(C)(C)[C@@H]4CC[C@]12C` (stereo not given in full), the Activity came out at 18%.

For the molecule `C/C(=C\C(O)C1OC1(C)C)[C@H]1CC[C@]2(C)[C@@H]1C[C@@H](O)[C@@H]1[C@@]3(C)CCC(=O)C(C)(C)[C@@H]3CC[C@]12C` (stereo not given in full), the Activity was 43.1%.

For `C/C(=C\C(O)C(O)C(C)(C)O)[C@H]1CC[C@]2(C)[C@@H]1C[C@@H](O)[C@@H]1[C@]34CC[C@](O)(OC3)C(C)(C)[C@@H]4CC[C@]12C` (stereo not given in full), the Activity was -2.09%.

For `COC(C)(C)C(O)C(O)/C=C(\C)[C@H]1CC[C@]2(C)[C@@H]1C[C@@H](O)[C@@H]1[C@]34CC[C@](O)(OC3)C(C)(C)[C@@H]4CC[C@]12C` (stereo not given in full), the Activity was 19%.

For the origin of these results see ChEMBL document CHEMBL1147228, “Dammarane-type triterpenes from the Brazilian medicinal plant Cordia multispicata” (J Nat Prod, 2003).
